In patent US20210221822A1, “TRICYCLIC DERIVATIVES INHIBITOR, PREPARATION METHOD, AND APPLICATIONS THEREOF” (Jiangsu Hansoh Pharmaceutical Group Co., Ltd., priority 2018, published 2021):

Experiments:
PI3Kδ = target: T1, PI3Kδ (Homo sapiens, UniProt O00329); assay: ADP-Glo lipid kinase assay, PI3Kδ kinase activity; format: biochemical; details: 0.1 nM enzyme, 90 min, 100 μM ATP
T1 construct: purchased Carna 11-103
Method in brief: (§1)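 ADP-Glo luminescence measured ADP formed by PI3Kα, β, γ or δ (0.1-2 nM working solution) with PIP2:3PS (50 μM added solution) and ATP in HEPES/MgCl2/NaCl/BSA buffer, 90 to 120 min at room temperature. % inhibition was set against DMSO and no-kinase controls, and IC50 came from a four-parameter fit.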

HCC1954 cells = assay: In vivo efficacy test, HCC1954 tumor-bearing nude mice; set-up: species or system BALB/c nude mice; details: HCC1954 xenograft, oral 10 mg/kg once/day, 21 days (Example 51: 19 days)
Procedure: a. HCC1954 cells were taken from the cell bank, and resuscitated in RPMI-1640 medium (RPMI-1640+10% FBS+1% SP). The resuscitated cells were placed in a cell culture flask (the cell type, date, operator's name and the like were marked on the wall of the flask), and cultured in a CO2 incubator (the temperature of the incubator was 37° C., and the CO2 concentration was 5%).
c. The cultured cells were collected and counted with the automatic cell counter. The cells were resuspended with PBS and matrigel according to the counting results to prepare a cell suspension (density: 5×10^7/mL), which was placed in an ice box for later use.
d. The test nude mice were subjected to inoculation successively (0.1 mL of cell suspension was inoculated to each mouse).
a. According to the tumor growth, the tumor was measured on 14 to 18 days after the inoculation, and the tumor size was calculated.
Tumor volume calculation: tumor volume (mm^3)=length (mm)×width (mm)×width (mm)/2
c. According to the grouping results, the test compounds were administered (administration mode: oral administration; administration dose: 10 mg/kg;
administration volume: 10 mL/kg; administration frequency: once/day; administration cycle: 21 days; vehicle: 0.5% CMC/1% Tween 80).
d. Tumor volume and body weight were measured twice a week after the administration of test compounds began.
f. […]

PI3Kβ = target: T2, PI3Kβ (Homo sapiens, UniProt P42338); assay: ADP-Glo lipid kinase assay, PI3Kβ kinase activity; format: biochemical; details: 0.4 nM enzyme, 90 min, 100 μM ATP
T2 construct: purchased Carna 11-102
Method in brief: as §1

T1 sequence (O00329 whole entry): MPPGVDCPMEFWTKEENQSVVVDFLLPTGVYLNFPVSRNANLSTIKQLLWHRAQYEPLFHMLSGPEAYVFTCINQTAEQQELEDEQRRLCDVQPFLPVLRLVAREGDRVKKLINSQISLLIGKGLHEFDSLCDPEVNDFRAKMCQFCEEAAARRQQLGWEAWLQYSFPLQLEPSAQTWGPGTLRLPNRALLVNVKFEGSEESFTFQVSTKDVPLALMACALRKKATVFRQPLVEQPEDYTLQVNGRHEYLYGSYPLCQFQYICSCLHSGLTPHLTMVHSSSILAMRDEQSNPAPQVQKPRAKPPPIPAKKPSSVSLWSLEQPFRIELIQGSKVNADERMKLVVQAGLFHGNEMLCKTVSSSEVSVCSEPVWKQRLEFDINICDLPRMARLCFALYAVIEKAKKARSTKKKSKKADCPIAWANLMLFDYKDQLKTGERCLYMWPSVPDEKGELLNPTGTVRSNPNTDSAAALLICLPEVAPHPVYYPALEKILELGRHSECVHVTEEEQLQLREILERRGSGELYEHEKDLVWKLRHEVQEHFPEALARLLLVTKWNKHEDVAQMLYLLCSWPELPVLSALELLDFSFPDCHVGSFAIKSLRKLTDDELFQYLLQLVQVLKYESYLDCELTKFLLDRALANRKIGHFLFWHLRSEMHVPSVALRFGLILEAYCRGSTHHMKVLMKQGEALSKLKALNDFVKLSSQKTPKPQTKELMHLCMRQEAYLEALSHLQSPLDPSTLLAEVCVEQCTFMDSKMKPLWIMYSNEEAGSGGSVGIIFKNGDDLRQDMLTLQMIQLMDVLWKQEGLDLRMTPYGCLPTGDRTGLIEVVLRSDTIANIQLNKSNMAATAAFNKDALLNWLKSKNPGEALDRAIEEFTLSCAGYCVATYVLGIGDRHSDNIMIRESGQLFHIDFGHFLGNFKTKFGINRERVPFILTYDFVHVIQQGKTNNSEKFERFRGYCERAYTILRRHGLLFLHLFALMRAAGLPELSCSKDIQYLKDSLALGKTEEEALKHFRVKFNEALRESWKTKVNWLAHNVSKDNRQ
T1 sequence (P27986 whole entry partner): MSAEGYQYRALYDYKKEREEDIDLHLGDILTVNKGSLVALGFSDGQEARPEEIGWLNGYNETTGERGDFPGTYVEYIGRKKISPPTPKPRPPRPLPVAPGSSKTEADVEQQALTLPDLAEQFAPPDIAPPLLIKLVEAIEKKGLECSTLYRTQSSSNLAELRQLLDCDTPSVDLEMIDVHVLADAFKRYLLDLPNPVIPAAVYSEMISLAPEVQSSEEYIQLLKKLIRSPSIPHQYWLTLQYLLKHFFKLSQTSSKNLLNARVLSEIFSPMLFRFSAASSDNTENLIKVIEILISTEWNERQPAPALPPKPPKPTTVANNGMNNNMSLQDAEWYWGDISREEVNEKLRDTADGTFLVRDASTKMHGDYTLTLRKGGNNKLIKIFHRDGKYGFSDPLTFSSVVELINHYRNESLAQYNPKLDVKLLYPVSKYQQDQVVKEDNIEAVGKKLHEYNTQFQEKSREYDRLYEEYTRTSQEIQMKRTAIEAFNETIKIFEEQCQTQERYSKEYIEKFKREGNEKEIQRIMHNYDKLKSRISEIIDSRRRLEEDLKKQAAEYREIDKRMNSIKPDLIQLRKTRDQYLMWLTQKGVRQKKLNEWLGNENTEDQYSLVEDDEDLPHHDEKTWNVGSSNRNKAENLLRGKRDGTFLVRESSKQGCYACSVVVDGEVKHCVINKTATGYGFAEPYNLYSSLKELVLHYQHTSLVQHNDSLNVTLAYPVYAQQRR
T2 sequence (P42338 whole entry): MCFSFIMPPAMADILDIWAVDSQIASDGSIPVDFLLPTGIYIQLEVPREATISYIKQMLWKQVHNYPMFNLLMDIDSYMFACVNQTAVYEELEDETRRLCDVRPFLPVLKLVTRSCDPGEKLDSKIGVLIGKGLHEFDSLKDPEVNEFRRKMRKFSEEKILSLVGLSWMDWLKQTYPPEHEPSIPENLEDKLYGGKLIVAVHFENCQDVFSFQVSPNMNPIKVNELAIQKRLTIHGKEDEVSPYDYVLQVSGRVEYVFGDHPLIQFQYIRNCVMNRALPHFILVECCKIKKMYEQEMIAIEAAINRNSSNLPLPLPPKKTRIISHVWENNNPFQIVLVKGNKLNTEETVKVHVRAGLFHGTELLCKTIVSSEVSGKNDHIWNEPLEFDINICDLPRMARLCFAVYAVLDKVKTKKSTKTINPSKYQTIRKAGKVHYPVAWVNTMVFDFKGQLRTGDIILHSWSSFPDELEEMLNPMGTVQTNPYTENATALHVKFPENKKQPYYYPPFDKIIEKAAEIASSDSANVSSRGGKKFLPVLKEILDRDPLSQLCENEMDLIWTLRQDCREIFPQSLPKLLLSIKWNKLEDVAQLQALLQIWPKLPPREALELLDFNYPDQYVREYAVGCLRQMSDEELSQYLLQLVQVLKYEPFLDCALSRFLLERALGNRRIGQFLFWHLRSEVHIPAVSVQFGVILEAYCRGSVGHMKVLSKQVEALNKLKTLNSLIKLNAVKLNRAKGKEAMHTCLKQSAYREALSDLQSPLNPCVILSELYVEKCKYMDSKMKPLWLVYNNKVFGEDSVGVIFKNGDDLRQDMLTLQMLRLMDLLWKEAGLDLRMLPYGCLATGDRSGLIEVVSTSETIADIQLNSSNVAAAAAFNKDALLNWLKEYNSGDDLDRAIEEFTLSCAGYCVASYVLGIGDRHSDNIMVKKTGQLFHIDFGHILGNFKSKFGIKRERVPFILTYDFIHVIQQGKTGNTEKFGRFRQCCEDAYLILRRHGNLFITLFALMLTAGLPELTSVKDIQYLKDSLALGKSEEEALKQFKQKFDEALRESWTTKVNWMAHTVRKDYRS
T2 sequence (P27986 whole entry partner): as the sequence (P27986 whole entry partner) above

C[C@H](Nc1ccc2c(c1)OCCn1cc(N3C(=O)COC[C@H]3C(F)F)nc1-2)C(N)=O [Example 68, (S)-2-((2-((S)-3-(difluoromethyl)-5-oxomorpholino)-5,6-dihydrobenzo[f]imidazo[1,2-d][1,4]oxazepin-9-yl)amino)propanamide]
IC50 (PI3Kδ): 24 nM
Tumor growth inhibition rate (HCC1954 cells): 78%
IC50 (PI3Kβ): 198 nM
